Results taken from ChEMBL document CHEMBL4627326, “Discovery of 4-hydroxy-2-oxo-1,2-dihydroquinolines as potential inhibitors of Streptococcus pneumoniae, including drug-resistant strains” (Bioorg Med Chem Lett, 2020).
Values after ≈ are worked out from the molar mass of the structure shown.

What was measured:
[1] = test system: Streptococcus pneumoniae; experiment: Antibacterial activity against Streptococcus pneumoniae ATCC 700904; assay type: functional, organism-based
[2] = test system: Streptococcus pneumoniae; experiment: Antibacterial activity against Streptococcus pneumoniae ATCC 49617; assay type: functional, organism-based
[3] = test system: Streptococcus pneumoniae; experiment: Antibacterial activity against Streptococcus pneumoniae ATCC BAA1663; assay type: functional, organism-based
[4] = Clearance in rat at 2 mg/kg, iv; assay type: ADME, organism-based; conditions: in vivo
[5] = Volume of distribution at steady state in rat at 2 mg/kg, iv; assay type: ADME, organism-based; conditions: in vivo, read-out: Vdss
[6] = Tmax in rat at 10 mg/kg, po; assay type: ADME, organism-based; conditions: in vivo
[7] = Oral bioavailability in rat at 10 mg/kg; assay type: ADME, organism-based; conditions: in vivo
[8] = Half life in rat at 2 mg/kg, iv; assay type: ADME, organism-based; conditions: in vivo
[9] = AUC in rat at 2 mg/kg, iv; assay type: ADME, organism-based; conditions: in vivo
[10] = Cmax in rat at 10 mg/kg, po; assay type: ADME, organism-based; design: dose 10 mg/kg, route oral; conditions: in vivo
[11] = AUC in rat at 10 mg/kg, po; assay type: ADME, organism-based; conditions: in vivo
[12] = Half life in rat at 10 mg/kg, po; assay type: ADME, organism-based; conditions: in vivo
[13] = Protein binding in rat plasma; assay type: ADME, cell-free; conditions: read-out: PPB (converted)
[14] = Solubility of compound at 1 mg/ml incubated for 24 hrs by LC/MS analysis; assay type: physicochemical
[15] = Protein binding in human plasma; assay type: ADME, cell-free; conditions: read-out: PPB (converted)
[16] = Streptococcus pneumoniae, ATCC 700904, read-out: IC50

Compound | IC50 [1, 16] | IC50 [2] | IC50 [3] | other results
O=C(Nc1nc2ccccc2s1)c1c(O)c2cccc3c2n(c1=O)CC3 | 7.9 µM | 3.6 µM | 8.8 µM | 
O=C(Nc1nccs1)c1c(O)c2cccc3c2n(c1=O)CCC3 | > 20 µM | > 20 µM | > 20 µM | 
O=C(Nc1nccs1)c1c(O)c2cccc3c2n(c1=O)CC3 | > 20 µM | 17.6 µM | 16 µM | 
CCn1c(=O)c(C(=O)Nc2nccs2)c(O)c2ccccc21 | 6.2 µM | > 20 µM | 6.6 µM | 
CCCCn1c(=O)c(C(=O)Nc2nc3ccccc3[nH]2)c(O)c2ccccc21 | 0.8 µM | 0.92 µM | 1.8 µM | clearance [4]: 3 mL/min/kg; Vd [5]: 4.76 L/kg; Tmax [6]: 6 h; bioavailability [7]: 35%; half-life [8]: 18.8 h; AUC [9]: 6990 ng·h/mL; Cmax [10]: 1200 ng/mL; AUC [11]: 12400 ng·h/mL; half-life [12]: 4 h
CCCCn1c(=O)c(C(=O)Nc2nc3ccc(Cl)cc3s2)c(O)c2ccccc21 | 0.38 µM | 1 µM | 0.66 µM | 
O=C(Nc1nc2ccc(Cl)cc2s1)c1c(O)c2cccc3c2n(c1=O)CC3 | 0.62 µM | 0.27 µM | 1.03 µM | fraction unbound [13]: 0.016; solubility at 24 h [14]: 0.195 µg/mL (≈ 0.49 µM); fraction unbound [15]: 0.006
CN[C@H](CC(C)C)C(=O)N[C@H]1C(=O)N[C@@H](CC(N)=O)C(=O)N[C@H]2C(=O)N[C@H]3C(=O)N[C@H](C(=O)N[C@H](C(=O)O)c4cc(O)cc(O)c4-c4cc3ccc4O)[C@H](O)c3ccc(c(Cl)c3)Oc3cc2cc(c3O[C@@H]2O[C@H](CO)[C@@H](O)[C@H](O)[C@H]2O[C@H]2C[C@](C)(N)[C@H](O)[C@H](C)O2)Oc2ccc(cc2Cl)[C@H]1O [VANCOMYCIN] | 0.12 to 0.19 µM | 0.15 to 0.18 µM | 0.13 to 0.19 µM | 
Cc1nnc(NC(=O)c2c(O)c3cccc4c3n(c2=O)CC4)s1 | 1.7 µM | 2.2 µM | 2.7 µM | 
C=CCn1c(=O)c(C(=O)Nc2nc3ccc(Cl)cc3s2)c(O)c2ccccc21 | 3.1 µM | > 20 µM | 3.1 µM | 
O=C(Nc1nc2ccc(Cl)cc2s1)c1c(O)c2cccc3c2n(c1=O)CCC3 | > 20 µM | > 20 µM | > 20 µM | 
CCCCn1c(=O)c(C(=O)Nc2nccs2)c(O)c2ccccc21 | 0.77 µM | 0.57 µM | 0.75 µM | 
C=CCn1c(=O)c(C(=O)Nc2nccs2)c(O)c2ccccc21 | 4.2 µM | 4.1 µM | 4.5 µM | 
CC[C@H]1OC(=O)[C@H](C)[C@@H](O[C@H]2C[C@@](C)(OC)[C@@H](O)[C@H](C)O2)[C@H](C)[C@@H](O[C@@H]2O[C@H](C)C[C@H](N(C)C)[C@H]2O)[C@](C)(O)C[C@@H](C)C(=O)[C@H](C)[C@@H](O)[C@]1(C)O [ERYTHROMYCIN] |  | 0.051 to 0.1 µM | 0.037 to 0.08 µM | IC50 [1]: Not Active

Now from value to compound, other results behind:

IC50 [1, 16] | IC50 [2] | IC50 [3] | Compound | other results
3.8 µM | 6.4 µM | 5.4 µM | CCn1c(=O)c(C(=O)Nc2nc3ccccc3[nH]2)c(O)c2ccccc21 | 
> 20 µM | 13.1 µM | > 20 µM | O=C(Nc1nc2ccc(Cl)cc2s1)c1c(O)c2ccccc2[nH]c1=O | 
> 20 µM | > 20 µM | > 20 µM | Cn1c(=O)c(C(=O)Nc2nc3ccccc3[nH]2)c(O)c2ccccc21 | 
> 20 µM | 4.9 µM | > 20 µM | C=CCn1c(=O)c(C(=O)Nc2nc3ccccc3[nH]2)c(O)c2ccccc21 | 
> 20 µM | 5.9 µM | > 20 µM | CCn1c(=O)c(C(=O)Nc2nc3ccc(Cl)cc3s2)c(O)c2ccccc21 | 
> 20 µM | > 20 µM | > 20 µM | Cn1c(=O)c(C(=O)Nc2nccs2)c(O)c2ccccc21 | 
3.3 µM | 2 µM | 2.1 µM | O=C(Nc1nc2ccccc2[nH]1)c1c(O)c2cccc3c2n(c1=O)CC3 | clearance [4]: 1.17 mL/min/kg; Vd [5]: 0.84 L/kg; Tmax [6]: 2.7 h; bioavailability [7]: 17%; half-life [8]: 7.7 h; AUC [9]: 25700 ng·h/mL; Cmax [10]: 2700 ng/mL; AUC [11]: 21400 ng·h/mL; half-life [12]: 7.2 h
6.4 µM | 6.5 µM | 5.2 µM | O=C(Nc1nc2ccccc2[nH]1)c1c(O)c2cccc3c2n(c1=O)CCC3 | 
